System: Muscle tissue
Test: Biodistribution in muscle of iv dosed NCr nu/nu mouse xenografted with GPR30 overexpressing human Hec50 cells after 2 hrs
Type: ADME, organism-based
Conditions: in vivo

Drug uptake: 0.52 % ID/g
Compound: O=C(NCCc1ccc2c(c1)[C@@H]1C=CC[C@@H]1[C@H](c1cc3c(cc1Br)OCO3)N2)Nc1cccc([125I])c1
